Tests used:
ICP27 mRNA = assay: RT-qPCR of ICP27 mRNA in HrR3 infected U87 cells; format: cell-based, HSV-1; conditions: HrR3 MOI-5, 6 hours
Protocol: FIGS. 4A-4C show the effect of nifuroxazide on HSV-1 gene expression. (FIG. 4A) U87 cells were treated with HrR3 viruses at a MOI-3 and indicated doses of nifuroxazide. 24 hours post infected, total protein was extracted and subjected to western blot analysis. (FIG. 4B) U87 cells were treated with HrR3 at a MOI-5 and indicated concentration of nifuroxazide for 6 hours. ICP27 mRNA level was detected by RT-qPCR. (FIG. 4C) Relative mRNA level (2^−ΔΔCT) is shown. Data are presented as mean SD, *P<0.05 vs corresponding vehicle treatment.
In this example, the underlying mechanism of nifuroxazide mediated oHSV-1 replication enhancement was examined. The effect of nifuroxazide on viral immediate early gene, ICP27 and ICP4 expression was established by Western blot analysis.

STAT1 = target: T1, STAT1 (Mus musculus, UniProt P42225); assay: Western blot of STAT1 phosphorylation in CT26 cells; format: cell-based; conditions: 24 hours
T1 construct: Total protein was extracted after 24 hours and subjected to western blot analysis; endogenous in cells; host or cells: CT26 cells, with or without HrR3 infection
Protocol: (§1) FIG. 19A and FIG. 19B, U87 cells (A) or CT26 cells (B) were treated with the indicated concentrations of HrR3 or NF or a combination. Total protein was extracted after 24 hours and subjected to western blot analysis. Band intensity was measured using Image J software and normalized to β-actin. Samples were run in triplicate and data are as means±S.E. Statistically significant differences are indicated by P<0.05 or P<0.01. FIG. 19C, Mice subcutaneously bearing U87 tumors were intratumorally injected with a single dose of HrR3 virus (1×10^6 PFU) and/or peritoneally injected doses of NF as indicated. Tumors were harvested on day 10 post treatment and total protein was extracted from a mouse of each treatment group and subjected to western blot analysis in triplicate. Results are reported as means±S.E.
(§2) NF is a known inhibitor of STAT1 and STAT3. To evaluate the underlying molecular mechanism of the anti-tumour effect of the NF and oHSV-1 combination, the STAT1 and STAT3 status in U87 cells (FIG. 19A) and CT26 cells (FIG. 19B) cells was determined after an overnight treatment with NF and oncolytic viruses.

[1] = system: oHSV-1 (HrR3) in U87 cells; assay: oHSV-1 (HrR3) replication in U87 cells, titrated in vero cells; format: cell-based, HSV-1; conditions: HrR3 MOI-0.1, 48 hours
Protocol: FIGS. 2A-2B contain charts that show the effect of nifuroxazide on replication of oHSV-1. (FIG. 2A) Indicated cells were infected with HrR3 viruses at MOI-0.1. Viruses were harvested at 48 hours post-infected and titrated in vero cells. Data are presented as mean SD, *P<0.05 vs corresponding vehicle treatment. (FIG. 2B) U87 or glio cells were treated with HrR3 at a MOI of 1 and indicated concentration of nifuroxazide for 48 hours. Total DNA was extracted and subjected to qPCR to detect HSV-1 using ICP27 primer. nifuroxazide mediated oHSV-1% increase was represented in the figure.
In this example, the effect of nifuroxazide on oHSV-1 anti-tumor efficacy was evaluated. oHSV-1 infected treated glioma cells were incubated with low concentration of nifuroxazide. Replication increased 27- and 40-fold with 0.5 μM nifuroxazide and 10 μM nifuroxazide treated U87 cells respectively. Similarly, virus replication increased 0.8- and 4.7-fold virus in 9L cells treated with 0.5 μM nifuroxazide and 10 μM nifuroxazide respectively (FIG. 2A).

[2] = system: oHSV-1 (HrR3) in U87 tumors; assay: oHSV-1 amplification in subcutaneous U87 tumors in vivo (viral DNA qPCR, immunohistochemistry); design: species or system mice
Description: FIGS. 6A and 6B show results of in vivo dose dependent HrR3 replication augmentation by nifuroxazide. Subcutaneously U87 tumor bearing mice were intratumorally injected with single dose of HrR3 virus (n=2; […]) or peritoneally injected indicated concentration of nifuroxazide or both combination. Tumors were harvested at day 10 post treatment (FIG. 6A) Total genomic DNA was extracted from the harvested tumors. Viral DNA particles (ICP27) were detected by qPCR and normalized to β-actin. (FIG. 6B) ICP4 and STAT1 expression were determined by immunohistochemistry assay on harvested tumor tissues. Stained sections were then imaged using confocal microscopy.
In this example, oHSV-1 replication augmentation effect was evaluated in vivo. Subcutaneously implanted U87 tumors were treated with either HrR3 alone or in combination with 50 mg/kg nifuroxazide or 100 mg/kg nifuroxazide. Dose dependent oHSV-1 amplification was determined by measuring viral DNA by qPCR in tumor mass. oHSV-1 augmentation was observed 1.6 fold and 2.2 fold by 50 mg/kg nifuroxazide 100 mg/kg nifuroxazide respectively (FIG. 6A).

9L cells = assay: MTT cytotoxicity assay, 9L cells; format: cell-based; conditions: 72 hours, read-out: Inhibitory concentration 50% (IC50)
Protocol: (§3) FIGS. 1A-1B are graphs that show an anti-tumor effect of nifuroxazide. (FIG. 1A) Cells were treated with indicated concentration of nifuroxazide for 72 hours. Cytotoxicity was measured by using MTT assay. (FIG. 1B) Subcutaneously U87 tumor bearing mice were peritoneally injected with indicated doses of nifuroxazide. Tumor size was measured using calipers at day 7 post nifuroxazide treatment.
(§4) In this example, the antitumor effect of nifuroxazide is evaluated in different tumor cells. Cells were treated with nifuroxazide for 72 hours (FIG. 1A). […] To verify the anti-tumor efficacy of nifuroxazide in vivo, animals with subcutaneous U87 tumor implants were injected in the peritoneum with vehicle, 1 mg/kg nifuroxazide and 50 mg/kg nifuroxazide. […] Tumor volume was reduced around 25% and 60% after 7 days treatment with 1 mg/kg nifuroxazide and 50 mg/kg nifuroxazide respectively (FIG. 1B).
(§5) Cells were seeded in a 96-well plate at a density of 1×104 (U87). After overnight incubation, cells were treated with only vehicle or indicated MOI of virus or indicated concentration of drugs or reagents. After 2 to 3 days of treatment cell viability was measured by MTT assay (Sigma, Canada) according to the manufacturer's instruction. […] After overnight incubation with lysis buffer, cell viability was measured at 595 nm using a plate reader (Envision 2103 Multilabel reader, Perkin Elmer).

STAT3 = target: T2, STAT3 (Mus musculus, UniProt P42227); assay: Western blot of STAT3 phosphorylation in CT26 cells; format: cell-based; conditions: 24 hours
T2 construct: Total protein was extracted after 24 hours and subjected to western blot analysis; endogenous in cells; host or cells: CT26 cells, with or without HrR3 infection
Protocol: as §1, §2

SF126 cells = assay: MTT cytotoxicity assay, SF126 cells; format: cell-based; conditions: Homo sapiens, SF-126, 72 hours, read-out: Inhibitory concentration 50% (IC50)
Protocol: as §3, §4, §5

T1 sequence (P42225 whole entry): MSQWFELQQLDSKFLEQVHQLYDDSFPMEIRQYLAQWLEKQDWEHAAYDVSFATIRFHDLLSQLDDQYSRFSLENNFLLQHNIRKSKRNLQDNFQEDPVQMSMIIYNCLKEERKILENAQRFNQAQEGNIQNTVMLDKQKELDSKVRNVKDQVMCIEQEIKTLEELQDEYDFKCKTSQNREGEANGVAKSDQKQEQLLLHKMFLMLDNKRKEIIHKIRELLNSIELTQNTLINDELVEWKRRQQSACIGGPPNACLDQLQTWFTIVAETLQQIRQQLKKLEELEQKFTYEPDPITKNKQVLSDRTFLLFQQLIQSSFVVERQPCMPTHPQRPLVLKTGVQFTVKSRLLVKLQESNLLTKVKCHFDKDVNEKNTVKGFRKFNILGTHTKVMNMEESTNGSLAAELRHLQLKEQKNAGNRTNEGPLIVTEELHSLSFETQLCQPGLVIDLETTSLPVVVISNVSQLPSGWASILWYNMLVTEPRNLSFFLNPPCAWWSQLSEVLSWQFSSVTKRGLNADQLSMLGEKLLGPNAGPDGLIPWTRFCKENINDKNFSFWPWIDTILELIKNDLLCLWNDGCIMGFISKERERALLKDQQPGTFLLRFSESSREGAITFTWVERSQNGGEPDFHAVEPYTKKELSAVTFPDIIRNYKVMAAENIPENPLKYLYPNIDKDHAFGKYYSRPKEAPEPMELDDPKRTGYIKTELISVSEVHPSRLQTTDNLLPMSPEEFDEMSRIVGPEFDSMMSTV
T2 sequence (P42227 whole entry): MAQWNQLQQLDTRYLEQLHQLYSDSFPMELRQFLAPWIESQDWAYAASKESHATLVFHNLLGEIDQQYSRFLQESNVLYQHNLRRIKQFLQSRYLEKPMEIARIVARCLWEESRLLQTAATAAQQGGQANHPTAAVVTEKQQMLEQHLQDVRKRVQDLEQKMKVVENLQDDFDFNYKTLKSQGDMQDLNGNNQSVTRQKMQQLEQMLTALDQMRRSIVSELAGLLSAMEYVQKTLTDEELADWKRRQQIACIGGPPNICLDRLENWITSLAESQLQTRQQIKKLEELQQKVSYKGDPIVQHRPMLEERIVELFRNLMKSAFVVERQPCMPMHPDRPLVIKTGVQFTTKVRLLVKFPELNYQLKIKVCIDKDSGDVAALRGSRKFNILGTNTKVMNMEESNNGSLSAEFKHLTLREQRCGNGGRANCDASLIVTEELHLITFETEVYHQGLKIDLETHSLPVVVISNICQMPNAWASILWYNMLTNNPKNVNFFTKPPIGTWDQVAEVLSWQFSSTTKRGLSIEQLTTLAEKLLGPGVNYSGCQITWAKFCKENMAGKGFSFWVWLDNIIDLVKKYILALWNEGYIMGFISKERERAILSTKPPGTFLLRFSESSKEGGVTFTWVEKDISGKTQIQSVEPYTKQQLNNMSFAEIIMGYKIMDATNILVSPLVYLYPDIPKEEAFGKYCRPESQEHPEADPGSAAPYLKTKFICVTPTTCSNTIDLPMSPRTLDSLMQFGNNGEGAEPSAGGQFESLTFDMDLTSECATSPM

`O=C(N/N=C/c1ccc([N+](=O)[O-])o1)c1ccc(O)cc1` [nifuroxazide, Benzoic acid, 4-hydroxy-, [(5-nitro-2-furanyl)metylene]hydrazide] was tested, and the “ICP27 mRNA expression” value (ICP27 mRNA) was “up-regulation of ICP27 mRNA expression”, the “HrR3 induced upregulation of STAT1 phosphorylation” value (STAT1) was “effectively suppressed” and the “phosphorylation of STAT1” value (STAT1; NF alone) was “dose dependent inhibition”. The Replication increased ([1]; 0.5 μM nifuroxazide) was 27 fold, the Replication increased ([1]; 10 μM nifuroxazide) was 40 fold and the “oHSV-1 augmentation (viral DNA by qPCR in tumor mass)” value ([2]; 50 mg/kg nifuroxazide with HrR3, day 10) was 1.6 fold. The “oHSV-1 augmentation (viral DNA by qPCR in tumor mass)” value ([2]; 100 mg/kg nifuroxazide with HrR3, day 10) was 2.2 fold, the “oHSV-1 amplification by immunohistochemistry assay” value ([2]; harvested tumor tissues) was “oHSV-1 amplification was also confirmed” and the IC50 (9L cells) was about 27 µM. For the same compound, the “HrR3 induced upregulation of STAT3 phosphorylation” value (STAT3) was “effectively suppressed”, the “phosphorylation of STAT3” value (STAT3; NF alone) was “dose dependent inhibition” and the IC50 (SF126 cells) was about 20 µM.

Reference: patent publication US20190307820A1, “COMPOSITIONS AND METHODS OF USING STAT1/3 INHIBITORS WITH ONCOLYTIC HERPES VIRUS” (priority 2016, published 2019)
